Read-outs that look alike come from different tables or passages of the source.
How the values were obtained:
Type in all cases: in vivo
[1] = system: Phytophthora infestans (the causal agent of tomato late blight); assay: whole plant or invertebrate
[2] = system: Plasmopara vilicola (the causal agent of grape downy mildew); assay: Test A: grape downy mildew, test suspension sprayed on grape seedlings after inoculation, visual disease rating
Excerpt: General protocol for preparing test suspensions for Test A-C: The test compounds were first dissolved in acetone in an amount equal to 3% of the final volume and then suspended at the desired concentration (in ppm) in acetone and purified water (50/50 mix by volume) containing 250 ppm of the surfactant Trem® 014 (polyhydric alcohol esters). The resulting test suspensions were then used in Tests A-C. Spraying a 200 ppm test suspension to the point of run-off on the test plants was equivalent to a rate of 500 g/ha.
Grape seedlings were inoculated with a spore suspension of Plasmopara vilicola (the causal agent of grape downy mildew) and incubated in a saturated atmosphere at 20° C. for 24 h. After a short drying period, the test suspension was sprayed to the point of run-off on the grape seedlings, which were then moved to a growth chamber at 20° C. for 5 days, after which time the grape seedling were placed back into a saturated atmosphere at 20° C. for 24 h. Upon removal, visual disease ratings were made.
Results for Tests A-C are given in Table A. In the table, a rating of 100 indicates 100% disease control and a rating of 0 indicates no disease control (relative to the controls). A dash (-) indicates no test results.

[3] = system: Phytophthora infestans (the causal agent of tomato late blight); assay: whole plant or invertebrate; remark: listed apart in the source
[4] = Phytophthora infestans, 144 h, read-out: Percent Disease Control, Test B
[5] = Phytophthora infestans, 96 h, read-out: Percent Disease Control, Test C
[6] = Plasmopara, 144 h, * tested at 40 ppm, read-out: Percent Disease Control, Test A
[7] = compounds without asterisk (application rate not given), 100 = 100% disease control, 0 = no control relative to the controls

Cc1cc(C(F)(F)F)nn1CC(=O)N1CCC(c2nc(C3=NO[C@@H](c4ccccc4)C3)cs2)CC1 [Compound 3, 1-[4-[4-[(5R)-4,5-dihydro-5-phenyl-3-isoxazolyl]-2-thiazolyl]-1-piperidinyl]-2-[5-methyl-3-(trifluoromethyl)-1H-pyrazol-1-yl]ethanone]
pest or weed control at 10 µg/mL [1, 4]: 100% | pest or weed control at 10 µg/mL ([2]; Plasmopara, 144 h, ** tested at l0 ppm, read-out: Percent Disease Control, Test A): 100% | pest or weed control at 10 µg/mL [3, 5]: 99%

Cc1cc(C(F)(F)F)nn1CC(=O)N1CCC(c2nc(C3CC(c4ccccc4)=NO3)cs2)CC1 (stereo not drawn) [Compound 6, 4-[4-(4,5-dihydro-3-phenyl-5-isoxazolyl)-2-thiazolyl]-1-[(5-methyl-3-(trifluoromethyl)-1H-pyrazol-1-yl)acetyl]piperidine]
pest or weed control at 40 ppm [1, 4]: 100% | pest or weed control at 40 ppm [2, 6]: 95% | pest or weed control at 40 ppm [3, 5]: 99%

CC(=O)N1C(c2ccccc2)COC1c1csc(C2CCN(C(=O)Cn3nc(C(F)(F)F)cc3C)CC2)n1 (stereo not drawn) [Compound 14]
Percent Disease Control, Test B [1, 7]: 99% | Percent Disease Control, Test A [2, 7]: 25% | Percent Disease Control, Test C [3, 7]: 99%

Cc1cc(C(F)(F)F)nn1CC(=O)N1CCC(c2nc(C3=NOC(c4ccccc4)C3C)cs2)CC1 (stereo not drawn) [Compound 25]
Percent Disease Control, Test B ([1]; * tested at 40 ppm): 100% | Percent Disease Control, Test A ([2]; * tested at 40 ppm): 100% | Percent Disease Control, Test C ([3]; * tested at 40 ppm): 99%

Cc1cc(C(F)(F)F)nn1CC(=O)N1CCC(c2nc(-c3ccc(-c4ccccc4)cc3)cs2)CC1 [Compound 26]
Percent Disease Control, Test B [1, 7]: 83% | Percent Disease Control, Test A [2, 7]: 76% | Percent Disease Control, Test C [3, 7]: 33%

Cc1cc(C(F)(F)F)nn1CC(=O)N1CCC(c2nc(C3=NOC(C)(c4ccccc4)CC3)cs2)CC1 (stereo not drawn) [Compound 29]
Percent Disease Control, Test B [1, 7]: 100% | Percent Disease Control, Test A [2, 7]: 99% | Percent Disease Control, Test C [3, 7]: 99%

Cc1cc(C(F)(F)F)nn1CC(=O)N1CCC(c2nc(-c3cc(-c4ccccc4)no3)cs2)CC1 [Compound 30]
Percent Disease Control, Test B ([1]; ** tested at l0 ppm): 57% | Percent Disease Control, Test A ([2]; ** tested at l0 ppm): 31% | Percent Disease Control, Test C ([3]; ** tested at l0 ppm): 50%

Cc1cc(C(F)(F)F)nn1CC(=O)N1CCC(c2nc(C3=NC(c4ccccc4)CO3)cs2)CC1 (stereo not drawn) [Compound 31]
Percent Disease Control, Test B ([1]; ** tested at l0 ppm): 83% | Percent Disease Control, Test A ([2]; ** tested at l0 ppm): 84% | Percent Disease Control, Test C ([3]; ** tested at l0 ppm): 60%

Cc1cc(C(F)(F)F)nn1CC(=O)N1CCC(c2nc(C3=NCCN3Cc3ccccc3)cs2)CC1 [Compound 32]
Percent Disease Control, Test B [1, 7]: 26% | Percent Disease Control, Test A [2, 7]: 0% | Percent Disease Control, Test C [3, 7]: 0%

Cc1cc(C(F)(F)F)nn1CC(=O)N1CCC(n2cc(-c3cccc(-c4ccccc4)c3)cn2)CC1 [Compound 33]
Percent Disease Control, Test B [1, 7]: 9% | Percent Disease Control, Test A [2, 7]: 15% | Percent Disease Control, Test C [3, 7]: 0%

Cc1cc(C(F)(F)F)nn1CC(=O)N1CCC(n2cc(-c3cccc(-c4ccccc4)n3)cn2)CC1 [Compound 34]
Percent Disease Control, Test B [1, 7]: 40% | Percent Disease Control, Test A [2, 7]: 0% | Percent Disease Control, Test C [3, 7]: 0%

Cc1cc(C(F)(F)F)nn1CC(=O)N1CCC(c2nc(C3=NOC4(CCCc5ccccc54)C3)cs2)CC1 (stereo not drawn) [Compound 37, 1-[4-[4-(3′,4′-dihydrospiro[isoxazole-5(4H), 1′,(2′H)-naphthalen]-3-yl)-2-thiazolyl]-1-piperidinyl]-2-[5-methyl-3-(trifluoromethyl)-1H-pyrazol-1-yl]ethanone]
Percent Disease Control, Test B ([1]; * tested at 40 ppm): 100% | Percent Disease Control, Test A ([2]; * tested at 40 ppm): 100% | Percent Disease Control, Test C ([3]; * tested at 40 ppm): 99%

Cc1cc(C(F)(F)F)nn1CC(=O)N1CCC(c2nc(C3=NOC(c4cc(Cl)cc(Cl)c4)(C(F)(F)F)C3)cs2)CC1 (stereo not drawn) [Compound 39]
Percent Disease Control, Test B [1, 7]: 67% | Percent Disease Control, Test A [2, 7]: 8% | Percent Disease Control, Test C [3, 7]: 0%

Cc1cc(C(F)(F)F)nn1CC(=O)N1CCC(c2nc(-c3nnc(-c4ccccc4)o3)cs2)CC1 [Compound 40]
Percent Disease Control, Test B [1, 7]: 100% | Percent Disease Control, Test A [2, 7]: 47% | Percent Disease Control, Test C [3, 7]: 99%

Cc1cc(C(F)(F)F)nn1CC(=O)N1CCC(c2nc(-c3ncc(-c4ccccc4)o3)cs2)CC1 [Compound 42]
Percent Disease Control, Test B [1, 7]: 100% | Percent Disease Control, Test A [2, 7]: 62% | Percent Disease Control, Test C [3, 7]: 96%

Cc1cc(C(F)(F)F)nn1CC(=O)N1CCC(c2nc(-c3nc4ccccc4s3)cs2)CC1 [Compound 43]
Percent Disease Control, Test B [1, 7]: 43% | Percent Disease Control, Test A [2, 7]: 0% | Percent Disease Control, Test C [3, 7]: 0%

Cc1cc(C(F)(F)F)nn1CC(=O)N1CCC(c2nc(C3=NOC4(CCc5ccccc54)C3)cs2)CC1 (stereo not drawn) [Compound 44, 1-[4-[4-(2,3-dihydrospiro[1H-indene-1,5′(4′H)-isoxazol]-3′-yl)-2-thiazolyl]-1-piperidinyl]-2-[5-methyl-3-(trifluoromethyl)-1H-pyrazol-1-yl]ethanone]
pest or weed control at 40 ppm [1, 4]: 100% | pest or weed control at 40 ppm [2, 6]: 100% | pest or weed control at 40 ppm [3, 5]: 99%

Cc1cc(C(F)(F)F)nn1CC(=O)N1CCC(c2nc(C3=NOC4C(=O)N(C)C(=O)C34)cs2)CC1 (stereo not drawn) [Compound 45]
Percent Disease Control, Test B [1, 7]: 26% | Percent Disease Control, Test A [2, 7]: 30% | Percent Disease Control, Test C [3, 7]: 0%

Cc1cc(C(F)(F)F)nn1CC(=O)N1CCC(c2nc(C3=NCC(c4ccccc4)O3)cs2)CC1 (stereo not drawn) [Compound 47]
Percent Disease Control, Test B [1, 7]: 85% | Percent Disease Control, Test A [2, 7]: 0% | Percent Disease Control, Test C [3, 7]: 47%

Cc1cc(C(F)(F)F)nn1CC(=O)N1CCC(c2nc(C3=NCCC(c4ccccc4)O3)cs2)CC1 (stereo not drawn) [Compound 48]
Percent Disease Control, Test B [1, 7]: 85% | Percent Disease Control, Test A [2, 7]: 0% | Percent Disease Control, Test C [3, 7]: 0%

Cc1cc(C(F)(F)F)nn1CC(=O)N1CCC(c2nc(C3=NC(c4ccccc4)CO3)cs2)CC1 (stereo not drawn) [Compound 49]
Percent Disease Control, Test B [1, 7]: 100% | Percent Disease Control, Test A [2, 7]: 0% | Percent Disease Control, Test C [3, 7]: 96%

Cc1cc(C(F)(F)F)nn1CC(=O)N1CCC(c2nc(C3=NCC(c4ccccc4)O3)cs2)CC1 (stereo not drawn) [Compound 50]
Percent Disease Control, Test B [1, 7]: 100% | Percent Disease Control, Test A [2, 7]: 0% | Percent Disease Control, Test C [3, 7]: 99%

Cc1cc(C(F)(F)F)nn1CC(=O)N1CCC(c2nc(C3=NOC4c5ccccc5CC34)cs2)CC1 (stereo not drawn) [Compound 51]
Percent Disease Control, Test B [1, 7]: 100% | Percent Disease Control, Test A [2, 7]: 99% | Percent Disease Control, Test C [3, 7]: 99%

Cc1cc(C(F)(F)F)nn1CC(=O)N1CCC(c2nc(-c3nc4ccccc4o3)cs2)CC1 [Compound 52]
Percent Disease Control, Test B [1, 7]: 100% | Percent Disease Control, Test A [2, 7]: 85% | Percent Disease Control, Test C [3, 7]: 67%

Cc1cc(C(F)(F)F)nn1CC(=O)N1CCC(c2nc(C3=NCC(c4ccccc4)CO3)cs2)CC1 (stereo not drawn) [Compound 53]
Percent Disease Control, Test B ([1]; * tested at 40 ppm): 68% | Percent Disease Control, Test A ([2]; * tested at 40 ppm): 24% | Percent Disease Control, Test C ([3]; * tested at 40 ppm): 26%

Cc1cc(C(F)(F)F)nn1CC(=O)N1CCC(c2nc(C3=NC(c4ccccc4)CCO3)cs2)CC1 (stereo not drawn) [Compound 54]
Percent Disease Control, Test B [1, 7]: 73% | Percent Disease Control, Test A [2, 7]: 16% | Percent Disease Control, Test C [3, 7]: 0%

COC(=O)C1CC(c2csc(C3CCN(C(=O)Cn4nc(C(F)(F)F)cc4C)CC3)n2)=NO1 (stereo not drawn) [Compound 55]
Percent Disease Control, Test B [1, 7]: 26% | Percent Disease Control, Test A [2, 7]: 17% | Percent Disease Control, Test C [3, 7]: 0%

Cc1cc(C(F)(F)F)nn1CC(=O)N1CCC(c2nc(C3=NOC(C(C)(C)C)C3)cs2)CC1 (stereo not drawn) [Compound 56]
Percent Disease Control, Test B [1, 7]: 100% | Percent Disease Control, Test A [2, 7]: 99% | Percent Disease Control, Test C [3, 7]: 99%
